Results from US20030207924A1, “Compounds that modulate PPAR activity and methods of preparation” (priority 2002, published 2003).

Tests used:
hPPARβ chimeric receptor = target: T1, hPPARβ chimeric receptor (Homo sapiens, UniProt Q03181); assay: Transient transfection assay in HepG2 cells, Gal4-hPPARβ chimeric receptor, luciferase reporter (Test A); assay type: cell-based; conditions: for EC50-β (Hep G2-hBeta EC50): HepG2 cells, hPPARβ chimeric receptor, luciferase reporter, 24 hours
T1 construct: "expression plasmids encoding hPPARα, hPPARβ or mPPARγ chimeric receptors"
T1 sequence (Q03181 171-441 limits assumed): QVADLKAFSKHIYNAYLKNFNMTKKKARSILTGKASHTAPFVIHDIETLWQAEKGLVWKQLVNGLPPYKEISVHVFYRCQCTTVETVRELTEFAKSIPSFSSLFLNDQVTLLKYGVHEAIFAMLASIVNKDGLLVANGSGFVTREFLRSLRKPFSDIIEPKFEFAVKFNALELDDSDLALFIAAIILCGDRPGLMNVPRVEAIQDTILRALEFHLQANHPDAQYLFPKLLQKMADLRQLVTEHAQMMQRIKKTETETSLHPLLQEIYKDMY
Experimental: (§1) 1. Test A. Transient Transfections Assay Using the HepG2 Hepatoma Cell Line.
(§2) HepG2 cells were transiently transfected with an expression plasmids encoding hPPARα, hPPARβ or mPPARγ chimeric receptors and a reporter containing the yeast upstream activating sequence (UAS) upstream of the viral E1B promoter controlling a luciferase reporter gene. In addition, the plasmid pRSVβ-gal was used to control for transfection efficiency. HepG2 cells were grown in DMEM supplemented with 10% FBS and […] non-essential amino acid. On the first day, cells were split into 100 mm dishes at 2.5×10^6/dish and incubated overnight at 37° C./5% CO2. On the second day the cells were transiently transfected with plasmid DNA encoding a chimeric receptor, the luciferase reporter gene; and β-gal. For each 100 mm dish, 15 μg of lucifease reporter (PG5E1b) DNA, 15 μg of Gal4-PPAR chimeric receptor DNA, and 1.5 μg of β-gal plasmid DNA were mixed with 1.4 ml of opti-MEM in the tube. 28 μl of LipoFectamine-2000 reagent was added to 1.4 ml of opti-MEM in the tube, and incubate for 5 min at RT. The diluted Lipofectamine-2000 reagent was combined with the DNA mixture, and incubate for 20 min at RT. After fresh medium was added to each 100 mm dish of cells, 2.8 ml of Lipofectamine2000-DNA mixture was added dropwise to the 100 mm dish containing 14 ml of medium, and incubate 37° C. overnight. On day three cells were trypsinized off the 100 mm dishes and re-plated on 96 well plates. Cells were plated at 2.5×10^4 cells per well in 150 μl of media and 50 μl of compound diluted by media was added. The test compounds added were in the range from 50 μM to 50 pM. After addition of compounds, the plates were incubated at 37° C. for 24 hours. Subsequently cells were washed with once with 100 μl of PBS, lysed, and processed for measuring luciferase and β-gal activity using Dual-Light luciferase kit from Tropix®, according to the manufacturer's recommendations, on an EG&G Bethold MicroLumat LB96P luminometer. EC50 values were obtained using the GraphPad Prism™ program.

hPPARα chimeric receptor = target: T2, hPPARα chimeric receptor (Homo sapiens, UniProt Q07869); assay: Transient transfection assay in HepG2 cells, Gal4-hPPARα chimeric receptor, luciferase reporter (Test A); assay type: cell-based; conditions: HepG2 cells, hPPARα chimeric receptor, luciferase reporter, 24 hours; read-out: EC50-α (Hep G2-hAlpha EC50)
T2 construct: "expression plasmids encoding hPPARα, hPPARβ or mPPARγ chimeric receptors"
T2 sequence (Q07869 200-468 limits assumed): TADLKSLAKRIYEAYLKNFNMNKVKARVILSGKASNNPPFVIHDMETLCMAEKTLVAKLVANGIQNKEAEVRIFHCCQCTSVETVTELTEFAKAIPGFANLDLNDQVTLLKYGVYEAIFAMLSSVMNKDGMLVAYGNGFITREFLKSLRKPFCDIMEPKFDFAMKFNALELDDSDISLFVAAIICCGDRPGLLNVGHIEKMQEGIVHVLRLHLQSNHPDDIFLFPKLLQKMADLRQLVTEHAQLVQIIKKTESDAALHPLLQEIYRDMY
Experimental: as §1
as §2, with “program. […] Accordingly, the compounds of the present invention should find considerable therapeutic applications for hypercholesterolemia and hyperlipidemia.” for “program.”

Compound	EC50 (hPPARβ chimeric receptor) [µM]	EC50 (hPPARα chimeric receptor) [µM]	EC50-β (Hep G2-hBeta EC50) (hPPARβ chimeric receptor) [µM]
Cc1nc(-c2ccc(C(F)(F)F)cc2)sc1CSc1ccc([C@@H]2CC2C(=O)O)cc1 (stereo in doubt) [Example 12, 2-{4-[4-Methyl-2-(4-trifluoromethyl-phenyl)-thiazol-5-ylmethylsulfanyl]-phenyl}-cyclopropanecarboxylic acid]	0.303	0.135	–
Cc1cc(SCc2sc(-c3ccc(C(F)(F)F)cc3)nc2C)c(C)cc1OCC(=O)O [Example 1, {2,5-Dimethyl-4-[4-methyl-2-(4-trifluoromethyl-phenyl)-thiazol-5-ylmethylsulfanyl]-phenoxy}-acetic acid]	0.0144	0.042	–
CCc1cc(OCC(=O)O)c(C)cc1SCc1sc(-c2ccc(C(F)(F)F)cc2)nc1C [Example 2, {5-Ethyl-2-methyl-4-[4-methyl-2-(4-trifluoromethyl-phenyl)-thiazol-5-ylmethylsulfanyl]-phenoxy}-acetic acid]	0.361	1.23	–
Cc1cc(SCc2sc(-c3ccc(C(F)(F)F)cc3)nc2C)c(C(C)C)cc1OCC(=O)O [Example 3, {5-Isopropyl-2-methyl-4-[4-methyl-2-(4-trifluoromethyl-phenyl)-thiazol-5-ylmethylsulfanyl]-phenoxy}-acetic acid]	1.28	0.538	–
Cc1cc(SCc2sc(-c3ccc(C(F)(F)F)cc3)nc2C)cc(C)c1OCC(=O)O [Example 4, {2,6-Dimethyl-4-[4-methyl-2-(4-trifluoromethyl-phenyl)-thiazol-5-ylmethylsulfanyl]-phenoxy}-acetic acid]	0.0234	0.161	–
COc1cc(OCC(=O)O)c(C)cc1SCc1sc(-c2ccc(C(F)(F)F)cc2)nc1C [Example 5, {5-Methoxy-2-methyl-4-[4-methyl-2-(4-trifluoromethyl-phenyl)-thiazol-5-ylmethylsulfanyl]-phenoxy}-acetic acid]	0.0023	0.121	–
COc1cc(SCc2sc(-c3ccc(C(F)(F)F)cc3)nc2C)c(C)cc1OCC(=O)O [Example 6, {2-Methoxy-5-methyl-4-[4-methyl-2-(4-trifluoromethyl-phenyl)-thiazol-5-ylmethylsulfanyl]-phenoxy}-acetic acid]	1.24	1.39	–
Cc1cc(OCC(=O)O)cc(C)c1SCc1sc(-c2ccc(C(F)(F)F)cc2)nc1C [Example 7, {3,5-Dimethyl-4-[4-methyl-2-(4-trifluoromethyl-phenyl)-thiazol-5-ylmethylsulfanyl]-phenoxy}-acetic acid]	0.473	1.34	–
COc1cc(OCC(=O)O)cc(C)c1SCc1sc(-c2ccc(C(F)(F)F)cc2)nc1C [Example 8, {3-Methoxy-5-methyl-4-[4-methyl-2-(4-trifluoromethyl-phenyl)-thiazol-5-ylmethylsulfanyl]-phenoxy}-acetic acid]	0.0453	0.84	–
Cc1cc(OCC(=O)O)c(C(C)C)cc1SCc1sc(-c2ccc(C(F)(F)F)cc2)nc1C [Example 9, {2-Isopropyl-5-methyl-4-[4-methyl-2-(4-trifluoromethyl-phenyl)-thiazol-5-ylmethylsulfanyl]-phenoxy}-acetic acid]	0.891	5.75	–
Cc1nc(-c2ccc(C(F)(F)F)cc2)sc1CSc1ccc(C(C)(C)C(=O)O)cc1 [Example 11, 2-Methyl-2-{4-[4-methyl-2-(4-trifluoromethyl-phenyl)-thiazol-5-ylmethylsulfanyl]-phenyl}-propionic acid]	0.0488	0.507	–
Cc1nc(-c2ccc(C(F)(F)F)cc2)sc1CSc1ccc(C2(C(=O)O)CC2)cc1 [Example 13, 1-{4-[4-Methyl-2-(4-trifluoromethyl-phenyl)-thiazol-5-ylmethylsulfanyl]-phenyl}-cyclopropanecarboxylic acid]	0.0476	1.1	–
Cc1nc(-c2ccc(C(F)(F)F)cc2)sc1CSc1ccc(C2(C(=O)O)CCCC2)cc1 [Example 14, 1-{4-[4-Methyl-2-(4-trifluoromethyl-phenyl)-thiazol-5-ylmethylsulfanyl]-phenyl}-cyclopentanecarboxylic acid]	6.74	0.992	–
Cc1nc(-c2ccc(C(F)(F)F)cc2)sc1CSc1ccc(OCCC(=O)O)cc1 [Example 16, 3-{4-[4-Methyl-2-(4-trifluoromethyl-phenyl)-thiazol-5-ylmethylsulfanyl]-phenoxy}-propionic acid]	1.95	1.23	–
COc1cc(C(C)(C)C(=O)O)ccc1SCc1sc(-c2ccc(C(F)(F)F)cc2)nc1C [Example 17, 2-{3-Methoxy-4-[4-methyl-2-(4-trifluoromethyl-phenyl)-thiazol-5-ylmethylsulfanyl]-phenyl}-2-methyl-propionic acid]	0.0199	0.0055	–
Cc1nc(-c2ccc(C(F)(F)F)cc2)sc1CSc1ccc(C(C)(C)CC(=O)O)cc1 [Example 18, 3-Methyl-3-{4-[4-methyl-2-(4-trifluoromethyl-phenyl)-thiazol-5-ylmethylsulfanyl]-phenyl}-butyric acid]	0.803	–	–
COc1cc(OC)c(SCc2sc(-c3ccc(C(F)(F)F)cc3)nc2C)cc1CCC(=O)O [Example 19, 3-{2,4-Dimethoxy-5-[4-methyl-2-(4-trifluoromethyl-phenyl)-thiazol-5-ylmethylsulfanyl]-phenyl}-propionic acid]	1.12	1.54	–
CC(=O)Nc1cc(OCC(=O)O)c(C)cc1SCc1sc(-c2ccc(C(F)(F)F)cc2)nc1C [Example 25, 2-[5-(acetylamino)-2-methyl-4-({4-methyl-2-[4-(trifluoromethyl)phenyl](1,3-thiazol-5-yl)}methylthio)phenoxy]acetic acid]	–	–	2000
COc1cc(CN2CCCC2C(=O)O)ccc1SCc1sc(-c2ccc(C(F)(F)F)cc2)nc1C (stereo not drawn) [Example 29]	–	–	2000
Cc1nc(-c2ccc(C(F)(F)F)cc2)sc1CSc1ccc(C2CCC(CC(=O)O)CC2)cc1 (stereo not drawn) [Example 33, (4-{4-[4-Methyl-2-(4-trifluoromethyl-phenyl)-thiazol-5-ylmethylsulfanyl]-phenyl}-cyclohexyl)-acetic acid]	–	–	2000
